Measurements published in PubChem BioAssay (NCI).
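Interpolation was linear, between the two tested concentrations surrounding the appropriate level; five concentrations were tested over 48 hours in 96-well plates. TGI is the concentration that stops growth completely.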

Legend:
Test in all cases: DTP human tumour cell line panel, 48 h
DMS 273 small cell lung = tested on: DMS 273 small cell lung
DLD-1 colon = tested on: DLD-1 colon
HOP-18 NSCLC = tested on: HOP-18 NSCLC
LXFL 529 NSCLC = tested on: LXFL 529 NSCLC
RXF-631 renal = tested on: RXF-631 renal

| SMILES | TGI (DMS 273 small cell lung) | TGI (DLD-1 colon) | TGI (HOP-18 NSCLC) | TGI (LXFL 529 NSCLC) | TGI (RXF-631 renal) |
| --- | --- | --- | --- | --- | --- |
| COc1cc(C2c3cc4c(cc3[C@@H](Nc3cnc5ccccc5c3)C3COC(=O)[C@H]23)OCO4)cc(OC)c1O (stereo partly drawn) | 1.34 µM | 3.69 µM | 2.65 µM |  |  |
| COc1ccc2[nH]c(=O)cc(C)c2c1[N+](=O)[O-] | > 100 µM | > 100 µM |  | > 100 µM | > 100 µM |
| Cc1c2cnccc2c(C)c2c1c1ccccc1n2CCCCCCCl | > 50 µM | > 50 µM | > 7.93 µM |  |  |
| O=C1Sc2sc(=S)sc2SC1c1ccccc1 (stereo not drawn) | > 100 µM | > 90.9 µM | > 100 µM |  |  |
| C=C1C(=O)OC2/C=C(CO)/C=C\C3OC3(C)CC(OC(=O)/C(C)=C/COC(C)=O)C12 (stereo not drawn) | 4.3 µM | 2.49 µM | 22.1 µM | 4.27 µM | 12.1 µM |
